Ends that are not written are not given here.
Tests used:
[1] = test system: MSLN+K562 target cells (mixed 1:1 with CEA+K562); assay: Cytotoxicity test of sdCAR-T cells in vitro; assay type: cell-based, human; settings: for percentage content of homologous target cells MSLN+K562 (green fluorescence): fluorescence detection, versus beginning of the test
Protocol: The cytotoxicity of sdCAR-T cells was determined according to the survival rate of target cells (MSLN^+K562). The selected target cells were equal mixed cells of MSLN and CEA. […] The survival rate of MSLN target cells in each test group was calculated according to the following formula, and then the tumor killing ability of the constructed CARs-T cells in vitro could be analyzed.
1) Effector cells and mixed target cells (MSLN^+K562:CEA^+K562, 1:1) were co-incubated at a ratio of 5:2 in a U-shaped 96-well plate, RPMI1640 (10% FBS) was selected as a co-culture medium, and corresponding switching molecule s were added.
2) Culturing at 37° C. for 22 h with 5% CO2.
3) The ratio of MSLN and CEA tumor cells in each test group was detected by a flow cytometer, and then the survival rate of MSLN target cells was calculated.

[2] = test system: MSLN+K562 cells (mixed 1:1 with CEA+K562); assay: Time regulation of in vitro activity of sdCAR-T cells by exogenous switching molecules; assay type: cell-based, human; settings: switching molecule added at 4 h, sampled every 2 h, effector:target 5:2
Protocol: This example verified that the killing activity of the sdCAR-T cells on tumor cells was subjected to time regulation by the switching molecules, and the selected target cells were MSLN single positive tumor cells and single positive tumor cells of negative control CEA. In the 14-hour test, the cytotoxicity of sdCAR-T cells was tested in real time with and without switching molecules. A total of four test groups were designed, each group had three parallel wells, and the design of test group was the same as that of Example 6.
1) Effector cells and mixed target cells (MSLN^+K562:CEA^+K562, 1:1) were co-incubated at a ratio of 5:2 in a 6-well plate, RPMI1640 (containing 10% FBS) was selected as a co-culture medium, cultured at 37° C. with 5% CO2.
2) 100 μL of cell suspension was taken every 2 h as the culturing begins at the 0 h.
3) Corresponding switching molecules were added at the 4 h.
4) Co-culturing for 10 h (that is, cell suspension was taken 6 times); after the culture, the ratio of MSLN and CEA tumor cells in each test group was detected by a flow cytometer, and then the survival rate of MSLN target cells was calculated.

[3] = test system: MSLN+K562 cells (mixed equally with CEA+K562 cells, intraperitoneal); assay: Tumor killing test by sdCAR-T cells in vivo; set-up: species or system nude mice BALB/c; settings: nude mice; for in vivo cytokine (IL-2 and IFNγ) release level / in vivo cytokine (IL-2 and IFNγ) release level compared with Conventional CAR-T cell group: abdominal cavity fluid supernatant; for in vivo cytotoxicity of sdCAR-T cells: intraperitoneal tumor cells, abdominal cavity fluid by flow cytometry
Protocol: Female nude mice BALB/c which were 6-8 weeks old were selected, MSLN^+K562 cells and CEA^+K562 cells were mixed equally and injected intraperitoneally into the nude mice, and then corresponding effector cells and switching molecules were added respectively. Refer to FIG. 19 for details of the in vivo test process. Six test groups were designed, with 6 nude mice in each group. Specific solutions are as follows:
group 1: effector cells are T cells (No CAR) and no switching molecules are added;
group 2: effector cells are the second generation of CAR-T cells (Conventional CAR) specific to MSLN, and no switching molecules are added;
group 3: effector cells are sdCAR-T cells and no switching molecules are added;
group 4: effector cells are sdCAR-T cells, and small molecule HM-3 is added;
group 5: effector cells are sdCAR-T cells and switching molecule FITC is added; and
After the test was completed, the nude mice were euthanized, and then 5 mL of pre-cooled PBS was injected into the abdominal cavities of the nude mice. After the abdominal cavities of the nude mice were rubbed many times, the abdominal cavity fluid was sucked out completely, and centrifuged at a centrifugal force of 800 g for 8 min. The cells were collected, and the percentage of the two tumor cells was measured by flow cytometry, and then the in vivo activity of sdCAR-T cells could be calculated. In addition, the above centrifuged supernatant was collected to measure the release levels of cytokines IL-2 and IFNγ respectively.

K562 tumor cells = assay: Killing curve of K562 tumor cells by puromycin / hygromycin; assay type: cell-based; settings: 5 consecutive days
Protocol: 1) Low-generation cell strains were resuscitated from liquid nitrogen, and subjected to conventional culture and passaged 5 times, then the cell state was adjusted to a logarithmic growth period.
2) A new 24-well plate was prepared, 50000 K562 tumor cells were inoculated per well for 7 wells in total, and 500 μL of complete culture medium (RPMI1640, 10% FBS) was added per well. The well plate was placed in an incubator at 37° C. with 5% CO2 and cultured overnight.
3) The cell well plate was taken out from the incubator, one well was left free of puromycin, and puromycin with final concentrations of 0.5, 1, 2, 4, and 8 μg/mL were added to the remaining wells respectively.
4) The well plate was placed in an incubator at 37° C. with 5% CO2 for continuous cultivation. The state of cells in the well plate was observed under a microscope every day for 5 consecutive days. And the minimum concentration that can completely kill all cells on the fifth day was taken as the puromycin concentration for subsequent stable cell strain screening.
The method is the same as that of Example 3.4. The concentration gradient of the hygromycin was set to 50, 100, 200, 400 and 800 μg/mL respectively, and the concentration of the hygromycin was finally selected to be 100 μg/mL through the determination of the killing curve.

For `O=C1OC2(c3ccc(O)cc3Oc3cc(O)ccc32)c2ccc(N=C=S)cc21` [FITC], the “survival rate of MSLN tumor cells” value ([1]; effector:mixed target cells 5:2, 22 h, flow cytometry) was “about 30.98%”, the “percentage content of homologous target cells MSLN+K562 (green fluorescence)” value [1] was “significantly lower than that at the beginning of the test” and the “cytotoxicity of sdCAR-T cells after addition of switching molecule” value [2] was “significant cytotoxicity”. The “in vivo cytokine (IL-2 and IFNγ) release level” value [3] was “release significant cytokine levels”, the “in vivo cytokine (IL-2 and IFNγ) release level compared with Conventional CAR-T cell group” value [3] was “only half of the level” and the “in vivo cytotoxicity of sdCAR-T cells” value [3] was “significant cytotoxicity”.
In the case of “FHBM: FITC and polypeptide HM-3 coupled to form a bifunctional small molecule; exogenous switching molecule for sdCAR-T cells (IVRRADRAAVPGGGGRGD; also: FITC coupled to HM-3, site not given here)”, the “percentage content of homologous target cells MSLN+K562 (green fluorescence)” value [1] was “significantly lower than that at the beginning of the test”, the “cytotoxicity of sdCAR-T cells after addition of switching molecule” value [2] was “significant cytotoxicity” and the “in vivo cytokine (IL-2 and IFNγ) release level” value [3] was “release significant cytokine levels”. For the same compound, the “in vivo cytokine (IL-2 and IFNγ) release level compared with Conventional CAR-T cell group” value [3] was “only half of the level”, the “in vivo cytotoxicity of sdCAR-T cells” value [3] was “significant cytotoxicity” and the “in vivo cytotoxicity of FHBM treatment group compared with FITC treatment group” value ([3]; sdCAR-T cells plus switching molecule) was “better than that of the FITC treatment group”.
`COc1ccc(C[C@H](N)C(=O)N[C@H]2[C@@H](O)[C@H](n3cnc4c(N(C)C)ncnc43)O[C@@H]2CO)cc1` [puromycin] was tested, and the “minimum concentration that can completely kill all cells on the fifth day (concentration selected from the killing curve)” value (K562 tumor cells) was 1 µg/mL.

Reference: patent US11932872B2, “Dual chimeric antigen receptor-t cell which can be regulated, construction method therefor and use thereof” (NANJING ANJI BIOLOGICAL TECHNOLOGY CO., LTD, priority 2017, dated 2024)
